Data published in ChEMBL document CHEMBL1121959, “Probes of the active site of norepinephrine N-methyltransferase: effect of hydrophobic and hydrophilic interactions on side-chain binding of amphetamine and alpha-methylbenzylamine” (J Med Chem, 1982).

target: T1, Phenylethanolamine N-methyltransferase (Bos taurus, UniProt P10938); test: Inhibitory activity against bovine adrenal norepinephrine N-methyl-transferase was determined
T1 sequence (P10938 whole entry): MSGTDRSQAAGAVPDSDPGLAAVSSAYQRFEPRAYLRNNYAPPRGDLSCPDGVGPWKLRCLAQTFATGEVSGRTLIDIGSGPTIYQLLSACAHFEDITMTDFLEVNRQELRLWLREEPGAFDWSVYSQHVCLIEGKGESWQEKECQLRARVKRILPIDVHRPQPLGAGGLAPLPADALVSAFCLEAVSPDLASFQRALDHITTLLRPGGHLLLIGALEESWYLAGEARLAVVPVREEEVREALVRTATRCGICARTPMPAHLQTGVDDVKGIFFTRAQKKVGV

Structure (SMILES) | Ki [µM]
N[C@H](CO)CC1CCCCC1 | 125
N[C@@H](CO)Cc1ccccc1 | 379
N[C@@H](CO)CC1CCCCC1 | 33
N[C@@H](CO)c1ccccc1 | 88
CCC(N)Cc1ccccc1 (stereo not given) | > 1000
NC(CC1CCCCC1)c1ccccc1 (stereo not given) | > 1000
CCCC(N)c1ccccc1 (stereo not given) | > 1000
NC(Cc1ccccc1)Cc1ccccc1 | > 1000
CCCC(N)Cc1ccccc1 (stereo not given) | > 1000
NC(CO)Cc1ccccc1 (racemic) | 385
NC(CO)CC1CCCCC1 (racemic) | 47
NC(CO)c1ccccc1 (racemic) | 1220
C[C@H](N)Cc1ccccc1 [DEXTROAMPHETAMINE] | 442
N[C@H](CO)Cc1ccccc1 [L-PHENYLALANINOL] | 664
C[C@@H](N)Cc1ccccc1 [LEVAMFETAMINE] | 1380
